US6818798B1, “Process for making a (3R,3′R)-zeaxanthin precursor” (University of Maryland, College Park, priority 2000, dated 2004)

Experiments:
Format in all cases: physicochemical
[1] = Solubility in non-polar hydrocarbon / organic solvents; settings: pentane, hexane, heptane, cyclohexane, petroleum ether (b.p.=35-60° C.)
Experimental: Such solvents include pentane, hexane, heptane, cyclohexane, petroleum ether (b.p.=35-60° C.) and the like. Based on this difference in solubility behavior, a number of processes were developed which allowed the partial separation of 3′-epilutein from (3R,3′R,6′R)-lutein. These methods are a) solvent extraction, b) preferential crystallization, c) Soxhlet extraction, d) enzymatic acylation, and e) supercritical extraction with carbon dioxide. When each of these methods is applied separately to a 1:1 mixture of (3R,3′R,6′R)-lutein and 3′-epilutein, the partial separation of these carotenoids was accomplished and 3′-epilutein was obtained in 77-95% enrichment. […] The enrichment of 3′-epilutein in poorly separated mixtures may be further increased by low-temperature crystallization of (3R,3′R,6′R)-lutein from a C1-4 alcohol. Alcohols suitable for this crystallization include ethanol, methanol, propanol, 2-propanol and the like. The temperature at which the crystallization may be performed is between about −80° C. and about −40° C. […]
While (3R,3′R,6′R)-lutein and (3R,3′R)-zeaxanthin are not acylated with lipase AK or lipase PS, 3′-epilutein undergoes acylation at C-3′ to give 3′-epilutein-3′-acetate. As mentioned above, due to the difference in solubility between (3R,3′R,6′R)-lutein and 3′-epilutein, the enzymatic acylation can be readily carried out in the above-mentioned organic solvents. […]

[2] = Solubility in supercritical carbon dioxide; settings: 5 mg scale
Experimental: The partial separation of (3R,3′R,6′R)-lutein and 3′-epilutein was also found to be quite feasible by the use of supercritical fluid extraction with carbon dioxide.
5 mg of an epimeric mixture of (3R,3′R,6′R)-lutein and 3-epilutein prepared from 97% pure (3R,3′R,6′R)-lutein (Table 2) was mixed with 0.70 g of hydromatrix (mixture of silica gel and diatomaceous earth). This was extracted with carbon dioxide in a Model Prep-Master supercritical fluid extraction apparatus (Suprex-ISCO, Inc., Lincoln, Nebr.). The conditions were as follows: flow=2 ml/min, restrictor temperature=50° C., desorb temperature=10° C., oven temperature=35° C. A two step gradient was employed for extraction of 3′-epilutein. Step one used 100 g of carbon dioxide at 300 atmosphere and step two 50 g of carbon dioxide at 375 atmosphere. Total of 2.4 mg of carotenoids was extracted with this 150 g of carbon dioxide. The extracted carotenoids were shown by HPLC to consist of 3′-epilutein (83%), (3R,3′R,6′R)-lutein (13%), anhydrolutein (2%), and Z-luteins (2%). Approximately 2.5 mg of carotenoids remained in the hydromatrix; these were: (3R,3′R,6′R)-lutein (77%), 3′-epilutein (13%), and (3R,3′R)-zeaxanthin (10%).

Solubility in hexane = settings: printed as solvent volume per mass
Experimental: As pointed out above, the solubility of 3′-epilutein in solvents such as pentane, hexane, heptane, and petroleum ether (b.p.=35-60° C.) is much higher than that of (3R,3′R,6′R)-lutein. However; large scale separation with these non-polar hydrocarbons alone would require large volumes of solvents and is not practical. For example, the low solubility of 3′-epilutein in hexane (13 ml/mg) is indicative of the large volumes of this solvent needed for the partial separation of 3′-epilutein from (3R,3′R,6′R)-lutein by virtue of their differential solubilities. Therefore, a co-solvent may be employed to increase the solubility of 3′-epilutein and at the same time reduce the volume of the hydrocarbon solvent. […] Preferred ethers include diethyl ether, TBME, diisopropyl ether and the like. Preferred non-polar hydrocarbon solvents include pentane, hexane, heptane, petroleum ether and the like. The preferred petroleum ether is that fraction which boils at 35-60° C. The ratio of non-polar hydrocarbon solvent (or petroleum ether) to ether may range from 4:1, to about 2:1, more preferably, about 3:1. One of ordinary skill in the art may determine other ratios with no more than routine experimentation.

Row | solubility in hexane (Solubility in hexane) [mL/mg] | Compound | solubility in non-polar solvents (in words) [1] | solubility in supercritical carbon dioxide (in words) [2]
1 | 13 | CC1=C[C@@H](O)CC(C)(C)[C@H]1/C=C/C(C)=C/C=C/C(C)=C/C=C/C=C(C)/C=C/C=C(C)/C=C/C1=C(C)C[C@@H](O)CC1(C)C [3′-epilutein, (3R,3′S,6′R)-lutein] | slightly more soluble than (3R,3′R,6′R)-lutein | by far greater than that of (3R,3′R,6′R)-lutein and (3R,3′R)-zeaxanthin
2 | – | CC(=O)OC1C=C(C)C(C=CC(C)=CC=CC(C)=CC=CC=C(C)C=CC=C(C)C=CC2=C(C)CC(O)CC2(C)C)C(C)(C)C1 (stereo not shown) [3′-epilutein-3′-acetate] | highly soluble | –
